Reference: US20080269267A1, “KINASE INHIBITORS USEFUL FOR THE TREATMENT OF MYLEOPROLIFIC DISEASES AND OTHER PROLIFERATIVE DISEASES” (Deciphera Pharmaceuticals, LLC, priority 2007, published 2008)

How the values were obtained:
[1] = target: T1, c-Kit kinase (SEQ ID NO:9) (Homo sapiens, UniProt P10721); assay: c-Kit kinase assay (pyruvate kinase/lactate dehydrogenase coupled); settings: <2 min preincubation at 22° C., ATP 200 μM; read-out: c-Kit Enzyme Assay, biochemical IC50
T1 construct: purchased ProQinase
T1 sequence (P10721 with tags, fused parts or gaps): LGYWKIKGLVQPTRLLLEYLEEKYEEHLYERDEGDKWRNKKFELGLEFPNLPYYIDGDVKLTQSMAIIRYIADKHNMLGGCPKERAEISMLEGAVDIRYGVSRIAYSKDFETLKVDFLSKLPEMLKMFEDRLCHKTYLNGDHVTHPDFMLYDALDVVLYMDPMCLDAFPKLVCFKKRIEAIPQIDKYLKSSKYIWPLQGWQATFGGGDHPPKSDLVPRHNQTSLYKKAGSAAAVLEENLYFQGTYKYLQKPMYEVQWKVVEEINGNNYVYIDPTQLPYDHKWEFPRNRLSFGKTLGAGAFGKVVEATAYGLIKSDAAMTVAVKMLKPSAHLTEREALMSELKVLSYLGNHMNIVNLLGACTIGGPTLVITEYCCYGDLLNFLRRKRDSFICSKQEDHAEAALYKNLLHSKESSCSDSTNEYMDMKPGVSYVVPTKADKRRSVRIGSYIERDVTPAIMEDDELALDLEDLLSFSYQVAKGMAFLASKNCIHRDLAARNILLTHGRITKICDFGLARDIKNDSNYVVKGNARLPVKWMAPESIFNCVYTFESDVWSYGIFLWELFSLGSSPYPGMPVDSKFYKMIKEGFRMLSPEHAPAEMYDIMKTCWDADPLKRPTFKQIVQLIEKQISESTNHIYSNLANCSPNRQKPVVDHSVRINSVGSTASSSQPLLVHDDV
Procedure: C-Kit Kinase (SEQ ID NO:9) Assay
Activity of c-Kit kinase (SEQ ID NO:9) was determined by following the production of ADP from the kinase reaction through coupling with the pyruvate kinase/lactate dehydrogenase system (e.g., Schindler, et al. Science (2000) 289, 1938-1942). In this assay, the oxidation of NADH (thus the decrease at A340 nm) was continuously monitored spectrophometrically. The reaction mixture ([…]) contained c-Kit (cKIT residues T544-V976, from ProQinase, 5.4 nM), polyE4Y (1 mg/ml), MgCl2 (10 mM), pyruvate kinase (4 units), lactate dehydrogenase (0.7 units), phosphoenol pyruvate (1 mM), and NADH (0.28 mM) in 90 mM Tris buffer containing 0.2% octyl-glucoside and 1% DMSO, pH 7.5. Test compounds were incubated with […] (SEQ ID NO:9) and other reaction reagents at 22° C. for <2 min before ATP (200 μM) was added to start the reaction. The absorption at 340 nm was monitored continuously for 0.5 hours at 30° C. on Polarstar Optima plate reader (BMG). The reaction rate was calculated using the 0 to 0.5 h time frame. Percent inhibition was obtained by comparison of reaction rate with that of a control (i.e. with no test compound). IC50 values were calculated from a series of percent inhibition values determined at a range of inhibitor concentrations using software routines as implemented in the GraphPad Prism software package.

[2] = target: T2, C-Met kinase (SEQ ID NO:10) (Homo sapiens, UniProt P08581); assay: C-Met kinase assay (pyruvate kinase/lactate dehydrogenase coupled); settings: 0.5 h preincubation at 22° C., ATP 100 μM; read-out: c-Met Enzyme Assay, biochemical IC50
T2 construct: purchased Invitrogen PV3143
T2 sequence (P08581 with tags, fused parts or gaps): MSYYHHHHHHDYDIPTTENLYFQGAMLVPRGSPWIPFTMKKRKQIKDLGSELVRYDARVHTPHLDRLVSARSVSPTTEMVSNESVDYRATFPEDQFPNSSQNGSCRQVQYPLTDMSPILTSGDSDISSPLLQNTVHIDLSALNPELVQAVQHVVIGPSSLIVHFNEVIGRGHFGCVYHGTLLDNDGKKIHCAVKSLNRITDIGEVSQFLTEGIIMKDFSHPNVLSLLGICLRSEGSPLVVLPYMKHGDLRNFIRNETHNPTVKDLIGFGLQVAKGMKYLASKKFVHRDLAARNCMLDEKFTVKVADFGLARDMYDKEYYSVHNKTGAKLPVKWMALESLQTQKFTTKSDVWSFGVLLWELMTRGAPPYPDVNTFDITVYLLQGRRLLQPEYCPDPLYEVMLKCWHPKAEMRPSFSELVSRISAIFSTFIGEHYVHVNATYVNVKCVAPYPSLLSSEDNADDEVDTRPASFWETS
Procedure: C-Met Kinase (SEQ ID NO:10) Assay
Activity of C-Met kinase (SEQ ID NO:10) was determined by following the production of ADP from the kinase reaction through coupling with the pyruvate kinase/lactate dehydrogenase system (e.g., Schindler, et al. Science (2000) 289, 1938-1942). In this assay, the oxidation of NADH (thus the decrease at A340 nm) was continuously monitored spectrophometrically. The reaction mixture (100 μl) contained C-Met (c-Met residues; 956-1390, from Invitrogen, catalogue #PV3143, 6 nM), polyE4Y (1 mg/ml), MgCl2 (10 mM), pyruvate kinase (4 units), lactate dehydrogenase (0.7 units), phosphoenol pyruvate (1 mM), and NADH (0.28 mM) in 90 mM Tris buffer containing 0.25 mM DTT, 0.2% octyl-glucoside and 1% DMSO, pH 7.5. Test compounds were incubated with C-Met (SEQ ID NO:10) and other reaction reagents at 22° C. for 0.5 h before ATP (100 μM) was added to start the reaction. The absorption at 340 n=was monitored continuously for 2 hours at 30° C. on Polarstar Optima plate reader (BMG). The reaction rate was calculated using the 1.0 to 2.0 h time frame. Percent inhibition was obtained by comparison of reaction rate with that of a control (i.e. with no test compound). IC50 values were calculated from a series of percent inhibition values determined at a range of inhibitor concentrations using software routines as implemented in the GraphPad Prism software package.

[3] = target: B-Raf(V600E) kinase (SEQ ID NO:11) (Homo sapiens, UniProt P15056, V600E); assay: B-Raf(V600E) kinase assay (pyruvate kinase/lactate dehydrogenase coupled, MEK1 substrate); settings: 1 h preincubation at 30° C., ATP 0.2 mM; read-out: B-Raf V600E Enzyme Assay, biochemical IC50
B-Raf(V600E) kinase (SEQ ID NO:11), sequence (P15056 with tags, fused parts or gaps V600E): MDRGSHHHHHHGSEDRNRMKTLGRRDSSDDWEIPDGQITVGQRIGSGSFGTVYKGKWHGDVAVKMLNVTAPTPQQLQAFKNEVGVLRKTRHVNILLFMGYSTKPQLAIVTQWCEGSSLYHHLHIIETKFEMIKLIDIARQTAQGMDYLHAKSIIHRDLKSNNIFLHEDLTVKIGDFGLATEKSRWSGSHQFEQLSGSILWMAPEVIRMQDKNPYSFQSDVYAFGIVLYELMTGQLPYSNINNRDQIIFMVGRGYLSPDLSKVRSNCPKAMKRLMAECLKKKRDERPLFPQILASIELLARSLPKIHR
Procedure: B-Raf(V600E) Kinase Assay
The activity of B-Raf(V600E) kinase (SEQ ID NO:11) was determined by following the formation of ADP from the reaction through coupling with the pyruvate kinase/lactate dehydrogenase system (e.g., Schindler, et al. Science (2000) 289, 1938-1942). In this assay, the oxidation of NADH (thus the decrease at A340nm) was continuously monitored spectrophotometrically. The reaction mixture (100 μl) contained B-Raf(V600E) kinase (0.34 nM nominal concentration, SEQ ID NO:11), unphosphorylated, full-length MEK1 (42 nM, SEQ ID NO:12), MgCl2 (13 mM), pyruvate kinase (3.5 units), lactate dehydrogenase (5.5 units), phosphoenolpyruvate (1 mM), and NADH (0.28 mM), in 60 mM Tris buffer, containing 0.13% octyl-glucoside and 3.5% DMSO concentration at pH 7.5. The test compounds were incubated with the reaction mixture at 30° C. for 1 h. The reaction was initiated by adding ATP (0.2 mM, final concentration). The absorption at 340 nm was continuously monitored for 3 h at 30° C. on a Polarstar Optima plate reader (BMG). The reaction rate was calculated using the 0.5 h to 1.5 h time frame. Percent inhibition was obtained by comparison of reaction rate with that of a control (i.e. with no test compound). IC50 values were calculated from a series of percent inhibition values determined at a range of inhibitor concentrations using software routines as implemented in the GraphPad Prism software package.

For `CC(C)n1cc(NC(=O)Nc2ccc(Oc3ccnc(-c4cnn(C)c4)c3)cc2F)c(-c2ccccc2)n1` [Example 21, 1-(2-fluoro-4-(2-(1-methyl-1H-pyrazol-4-yl)pyridin-4-yloxy)phenyl)-3-(1-isopropyl-3-phenyl-1H-pyrazol-4-yl)urea], the IC50 [1] was < 0.1 µM, the IC50 [2] was < 1 µM and the IC50 [3] was < 1 µM.
